Experimental data from US11896604B2, “Composition comprising HMSs/HMOs and use thereof” (Glycom A/S, priority 2014, dated 2024).

What was measured:
[1] = test system: human LS174T cell culture model of goblet cells; experiment: Mucosal barrier function: goblet cell gene expression by quantitative RT-PCR; type: cell-based; conditions: 5 mg HMO/ml, compared to control cultures
Method: 2′-FL and LNnT are tested with respect to their ability to induce MUC2, TFF3, EIMβ, CHST5, and GAL3ST2 expression in the human LS174T cell culture model of goblet cells. The human LS174T cell line is obtained from the American Type Culture Collection (ATCC). LS174T cells are maintained in minimum essential medium (MEM) supplemented according to instructions at 37° C. in 5% CO2. 2′-FL and LNnT are dissolved in cell culture grade water to the required concentration. The LS174T cells are treated with the HMO solution containing 0 or 5 mg HMO/ml. The LS174T cells are collected and suspended in Trizol reagent and total RNA is isolated using an RNA analysis kit (Qiagen) according to the manufacturer's instructions and the RNA isolates are quantified using Nanodrop analysis (Thermo Fisher Scientific). RNA isolates are reverse transcribed using a high capacity cDNA Reverse Transcription Kit (Applied Biosystems) to create cDNA, which is then used to assess gene expression via quantitative RT-PCR. For the quantitative RT-PCR, specific TaqMAN gene expression assays are obtained from Applied Biosystems, which include expression assays for MUC2, TFF3, CHST5 and GAL3ST2. Quantitative real-time PCR is performed using TaqMAN PCR Master Mix (Applied Biosystems). Reactions are run in duplicates in a 384-well plate using an Applied Biosystems 7900HT Fast Real-Time PCR System. The results are analysed using SDS 2.3 software and calculated by delta delta Ct method. All samples are normalized to Gus-β expression and fold induction is calculated over untreated controls. Gene expression is expressed as fold increase compared to HMO-free control cells. The experiment is repeated three times.

IBS-D patients = conditions: cited from earlier work

Row | Molecule | expression of the MUC2 gene [1] | expression of the TFF3 gene [1] | induction of CHST5 [1] | induction of GAL3 ST2 [1] | bowel movement (IBS-D patients)
1 | 2′-fucosyllactose [2′-FL] | increases | increases | minimal induction | lack of induction | 
2 | CC(=O)N[C@H]1[C@H](O[C@H]2[C@@H](O)[C@@H](CO)O[C@@H](O[C@H]3[C@H](O)[C@@H](O)C(O)O[C@@H]3CO)[C@@H]2O)O[C@H](CO)[C@@H](O[C@@H]2O[C@H](CO)[C@H](O)[C@H](O)[C@H]2O)[C@@H]1O (mixture of isomers) [LNnT, lacto-N-neotetraose] | increases | increases | minimal induction | lack of induction | 
3 | CO[C@H]1/C=C/O[C@@]2(C)Oc3c(C)c(O)c4c(O)c(c5c(nc6cc(C)ccn65)c4c3C2=O)NC(=O)/C(C)=C\C=C\[C@H](C)[C@H](O)[C@@H](C)[C@@H](O)[C@@H](C)[C@H](OC(C)=O)[C@@H]1C [rifaximin] |  |  |  |  | reduce
